Data from the Kinase Knowledgebase extract (Sharma et al. 2016).

molecular target: MAPK14 (human) (UniProt Q16539); assay: Inhibition of MAPK14 Kinase Activity
Sequence (Q16539 whole entry, looked up): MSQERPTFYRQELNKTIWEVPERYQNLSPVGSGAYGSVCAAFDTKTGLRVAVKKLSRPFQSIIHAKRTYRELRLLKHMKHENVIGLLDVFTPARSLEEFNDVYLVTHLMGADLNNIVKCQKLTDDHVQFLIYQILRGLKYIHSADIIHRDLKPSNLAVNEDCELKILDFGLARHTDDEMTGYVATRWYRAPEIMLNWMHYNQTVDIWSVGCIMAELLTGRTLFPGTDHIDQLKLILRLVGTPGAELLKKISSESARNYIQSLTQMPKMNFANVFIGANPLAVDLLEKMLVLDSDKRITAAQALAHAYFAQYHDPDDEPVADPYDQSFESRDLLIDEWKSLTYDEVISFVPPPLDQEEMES

Compound | IC50 [nM]
O=C(c1sc2c(ccc(=O)n2-c2ccccc2)c1Nc1ccccc1)C1CCNCC1 | < 1000
O=C(c1sc2c(ccc(=O)n2-c2ccccc2)c1Nc1ccc(F)cc1F)C1CCNCC1 | < 1000
O=C(N[C@H]1CCC[C@@H]1O)c1sc2c(ccc(=O)n2-c2ccccc2)c1Nc1ccc(F)cc1F | < 1000
Cc1cc(Nc2c(C(=O)C3CCN(C)CC3)sc3c2ccc(=O)n3-c2ccccc2)ccc1F | < 1000
CN1CC[C@H](NC(=O)c2sc3c(ccc(=O)n3-c3ccccc3)c2Nc2ccc(F)cc2F)C1 | < 1000
CN1CCC(NC(=O)c2sc3c(ccc(=O)n3-c3ccccc3)c2Nc2ccc(F)cc2F)CC1 | < 1000
O=C(N[C@H]1CCNC1)c1sc2c(ccc(=O)n2-c2ccccc2)c1Nc1ccc(F)cc1F | < 1000
Cc1cc(Nc2c(C(=O)NC3CNC3)sc3c2ccc(=O)n3-c2ccccc2)ccc1F | < 1000
O=C(NC1CCNC1)c1sc2c(ccc(=O)n2-c2ccccc2)c1Nc1ccc(F)cc1F (stereo unspecified) | < 1000
Cc1cc(Nc2c(C(=O)C3CCNCC3)sc3c2ccc(=O)n3-c2ccccc2)ccc1F | < 1000
O=C(N[C@@H]1CCC[C@@H]1O)c1sc2c(ccc(=O)n2-c2ccccc2)c1Nc1ccc(F)cc1F | < 1000
O=C(NC1CCNCC1)c1sc2c(ccc(=O)n2-c2ccccc2)c1Nc1ccc(F)cc1F | < 1000
CN1CC[C@@H](NC(=O)c2sc3c(ccc(=O)n3-c3ccccc3)c2Nc2ccc(F)cc2F)C1 | < 1000
O=C(N[C@@H]1CCC[C@H]1O)c1sc2c(ccc(=O)n2-c2ccccc2)c1Nc1ccc(F)cc1F | < 1000
Cc1cccc(Nc2c(C(=O)C3CCNCC3)sc3c2ccc(=O)n3-c2ccccc2)n1 | < 1000
O=C(N[C@@H]1CCNC1)c1sc2c(ccc(=O)n2-c2ccccc2)c1Nc1ccc(F)cc1F | < 1000
